Laboratory results: patent US20080085333A1, “Composition Comprising Extract of Anemarrhena Asphodeloides and Aralia Elata,and Use Thereof” (MEDVILL CO., LTD., priority 2004, published 2008)
Converted amounts (≈) assume the structure as drawn.

What was measured:
[1] = system: PGE2 production in mouse macrophage cell line Raw264.7; experiment: Inhibition of LPS-induced PGE2 production in macrophages (ELISA); format: cell-based; conditions: Raw264.7, extract 1 hour before LPS, LPS 16 hours, read-out: IC50 for inhibition of PEG2 production
Description: The effect of the inventive water or organic solvent extract of Anemarrhena asphodeloides and Aralia elata on the production of PGE2 (prostaglandin E2) in mouse macrophages was examined to measure a concentration at which a 50% inhibitory effect is shown. The PGE2 is a substance synthesized by a COX-2 enzyme in macrophages permeated skin when infected with foreign substances or germs, and the degree of inflammation and the secreted amount of PGE2 are closely connected with each other. Namely, as inflammation becomes more severe, the secretion of PGE2 increases.
Meanwhile, when mouse macrophage cell line Raw264.7 (obtained from Korean Cell Line Bank) is cultured in RPMI medium while it is treated with LPS (lipopolysaccharide) for 16 hours, the production of PGE2 will increase. Thus, 1 hour before the macrophage cell line was treated with LPS, the macrophage cell line was treated with each of the water extract of Anemarrhena asphodeloides or water extract of Aralia elata prepared in Example 1, the water extract of Anemarrhena asphodeloides and Aralia elata prepared in Example 2 and the ethanol extract of Anemarrhena asphodeloides and Aralia elata prepared in Example 3, at varying concentrations of 5 mg/ml, 1 mg/ml, 500 μg/ml, 100 μg/ml, 50 μg/ml and 10 μg/ml, and then measured for the amount of PEG2 produced. […]

[2] = system: Propionibacterium acnes (KCTC 3314); experiment: Minimum inhibitory concentration in BHI broth, anaerobic culture, O.D. 660 nm; format: cell-based; conditions: 37° C., 48-72 hours
Experimental: To measure the antibacterial effect of the inventive extract against Propionibacterium acnes, […] of BHI (brain heart infusion) broth was inoculated with a culture of Propionibacterium acnes (KCTC 3314) at a concentration of 1% (v/v). Then, the inoculated broth was treated with each of the water extract of Anemarrhena asphodeloides or water extract of Aralia elata prepared in Example 1, the water extract of Anemarrhena asphodeloides and Aralia elata prepared in Example 2 and the ethanol extract of Anemarrhena asphodeloides and Aralia elata prepared in Example 3 at varying concentrations of 0.1%, 1%, 5%, 10% and 20%. A negative control group was treated with physiological saline. […] As positive control groups, erythromycin and triclosan, which are known to have antiacne effect, were used.

SMILES	IC50 [1] [µg/mL]	MIC [2]
CC(=O)Oc1ccccc1C(=O)O [aspirin]	48 (≈ 266 µM)	–
Oc1cc(Cl)ccc1Oc1ccc(Cl)cc1Cl [triclosan]	–	0.001 ppm, v/v
CC[C@H]1OC(=O)[C@H](C)[C@@H](O[C@H]2C[C@@](C)(OC)[C@@H](O)[C@H](C)O2)[C@H](C)[C@@H](O[C@@H]2O[C@H](C)C[C@H](N(C)C)[C@H]2O)[C@](C)(O)C[C@@H](C)C(=O)[C@H](C)[C@@H](O)[C@]1(C)O [erythromycin]	–	0.0005 ppm, v/v
